From article PMC5848165 (Toxins, 2018)
“Also recorded” adds a separate entry of the source. Residues, ends and D or L forms follow the SMILES beside them.

What was measured:
hot plate test in mice = assay: Hot plate test; format: in vivo, mouse (Kunming); details: for hot plate latency: 120 min, baseline about 10 s, n = 6
Procedure: Figure 6 Effects of JZTX-34 on pain. (A) Effects of JZTX-34 on the early phase (0–5 min) and late phase (15–30 min) of formalin-induced paw licking response in mice. (B) Effects of JZTX-34 on the acetic acid-induced writhing response in mice. (C)Effects of JZTX-34 on the hot plate test in mice.
Mice with a latency time about 10 s were selected for the hot plate test. […] After administration of test samples, the latency time was recorded at the time points of 30 min, 60 min, 120 min, and 180 min (Figure 6C). Negative control animals received the same volume of vehicle.
The synthesized JZTX-34 was obtained according to the procedure as previously described. […] Rats (Sprague-Dawley) and Kunming mice were maintained in the Laboratory of Protein Chemistry of Hunan Normal University. All of the experimental involving animals were approved by the Animal Care and Use Committee of Hunan Normal University (2016-273, 13 October 2016).
Mice were put on a hot plate apparatus (model HZ66-ZH-YLS-6B, Shanghai, China) in order to test response time to a thermal stimulus. The responses time of mice at about 10 s was selected for the test. […] Hind paw licking or jumping were regarded as a sign to avoid heat nociception.
Data from Axon 700B patch clamp were analyzed by Clampfit10.0 (Molecular Devices, Sunnyvale, CA, USA). Dose-response curves were fitted by the Hill logistic equation: y = 1 − (1 − fmax)/[…]. In this equation, n stands an empirical Hill coefficient and fmax is the fraction of current resistant to inhibition at high toxin (Tx) concentration. The G-V curves were obtained by calculating the conductance (G) at each voltage (V) using the equation G = I/(V1 − Vrev), with Vrev being the reversal potential determined for each cell individually. G-V curves were fitted using a Boltzmann equation—y = 1/(1 + exp[(Va − V)/κ])—in which Va, V, and κ represent midpoint voltage of kinetics, test potential, and slope factor, respectively. […] Statistical significance was calculated using Student’s t-test and was defined as p < 0.05.

rNav1.3 = biological target: T1, rNav1.3 (Rattus norvegicus, UniProt P08104); assay: Whole-cell patch clamp, Nav1.3 in HEK293 cells; format: cell-based; details: −10 mV from −80 mV holding
T1 construct: expressed in transfected cells; host or cells: HEK293 (HEK293T) cells, transient
T1 sequence (Q07699 19-218): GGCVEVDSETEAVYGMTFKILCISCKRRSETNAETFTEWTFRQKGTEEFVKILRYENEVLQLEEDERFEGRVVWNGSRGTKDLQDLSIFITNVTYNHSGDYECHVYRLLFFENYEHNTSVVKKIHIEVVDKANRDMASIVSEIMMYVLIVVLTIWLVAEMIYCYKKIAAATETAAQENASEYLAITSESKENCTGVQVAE
T1 sequence (P08104 whole entry): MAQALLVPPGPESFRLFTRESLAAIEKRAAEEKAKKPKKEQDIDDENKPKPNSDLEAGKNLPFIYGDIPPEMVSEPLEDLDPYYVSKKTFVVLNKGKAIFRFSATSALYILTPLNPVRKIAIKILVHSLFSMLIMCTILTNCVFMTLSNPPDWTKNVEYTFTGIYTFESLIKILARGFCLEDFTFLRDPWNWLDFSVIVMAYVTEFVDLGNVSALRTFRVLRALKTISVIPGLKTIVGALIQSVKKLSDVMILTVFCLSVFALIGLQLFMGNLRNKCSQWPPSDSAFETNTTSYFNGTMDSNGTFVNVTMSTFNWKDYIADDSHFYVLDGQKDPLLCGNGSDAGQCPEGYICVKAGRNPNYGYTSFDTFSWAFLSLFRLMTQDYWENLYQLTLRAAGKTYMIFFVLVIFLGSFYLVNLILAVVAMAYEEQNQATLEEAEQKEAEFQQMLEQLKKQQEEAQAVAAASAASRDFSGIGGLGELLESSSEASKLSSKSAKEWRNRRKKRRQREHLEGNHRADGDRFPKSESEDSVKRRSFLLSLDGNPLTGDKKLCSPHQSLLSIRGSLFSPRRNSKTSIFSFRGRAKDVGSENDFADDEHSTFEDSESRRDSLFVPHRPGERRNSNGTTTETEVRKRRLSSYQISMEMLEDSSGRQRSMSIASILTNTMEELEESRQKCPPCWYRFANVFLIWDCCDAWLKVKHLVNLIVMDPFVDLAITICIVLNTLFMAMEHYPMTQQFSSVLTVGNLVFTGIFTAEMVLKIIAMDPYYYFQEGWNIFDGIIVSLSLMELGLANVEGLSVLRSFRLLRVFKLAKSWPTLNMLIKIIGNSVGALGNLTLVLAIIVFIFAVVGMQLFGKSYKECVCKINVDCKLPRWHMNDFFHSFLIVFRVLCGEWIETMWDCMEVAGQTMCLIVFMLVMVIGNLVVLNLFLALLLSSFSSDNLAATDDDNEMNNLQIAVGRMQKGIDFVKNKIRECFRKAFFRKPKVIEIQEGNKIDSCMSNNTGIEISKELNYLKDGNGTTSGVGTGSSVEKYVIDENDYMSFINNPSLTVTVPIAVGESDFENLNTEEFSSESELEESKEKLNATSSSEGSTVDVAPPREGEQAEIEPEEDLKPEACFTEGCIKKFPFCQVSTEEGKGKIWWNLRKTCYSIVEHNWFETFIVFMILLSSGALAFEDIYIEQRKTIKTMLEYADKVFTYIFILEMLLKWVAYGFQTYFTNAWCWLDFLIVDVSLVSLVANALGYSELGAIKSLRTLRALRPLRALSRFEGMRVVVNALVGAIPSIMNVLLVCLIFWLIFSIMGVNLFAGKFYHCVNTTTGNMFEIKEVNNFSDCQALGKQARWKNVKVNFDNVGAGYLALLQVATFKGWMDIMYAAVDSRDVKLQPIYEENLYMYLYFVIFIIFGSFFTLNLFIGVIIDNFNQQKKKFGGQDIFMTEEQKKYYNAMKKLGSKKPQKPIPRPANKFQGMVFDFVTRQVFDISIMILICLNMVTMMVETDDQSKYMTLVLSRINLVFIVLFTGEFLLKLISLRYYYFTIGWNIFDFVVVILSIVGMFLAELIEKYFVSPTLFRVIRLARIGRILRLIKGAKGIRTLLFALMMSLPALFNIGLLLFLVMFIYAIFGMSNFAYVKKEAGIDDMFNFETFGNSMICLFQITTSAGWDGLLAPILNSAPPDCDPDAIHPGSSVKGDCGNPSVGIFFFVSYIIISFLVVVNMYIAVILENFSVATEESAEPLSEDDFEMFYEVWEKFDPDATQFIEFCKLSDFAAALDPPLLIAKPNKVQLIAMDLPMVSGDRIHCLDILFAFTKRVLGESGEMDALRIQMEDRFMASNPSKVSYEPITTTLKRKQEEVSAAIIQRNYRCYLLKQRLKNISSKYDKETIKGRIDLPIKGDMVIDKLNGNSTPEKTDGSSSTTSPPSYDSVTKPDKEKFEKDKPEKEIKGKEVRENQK
Text: Nine sodium channel subtypes have been identified and classified as TTX-S (Nav1.1–Nav1.4, Nav1.6, and Nav1.7) or TTX-R types (Nav1.5, Nav1.8, and Nav1.9). […] However, the subtype selectivity of JZTX-34 on the subtype of sodium channel is still unknown. In this work, effects of JZTX-34 on VGSC subtypes (Nav1.1–Nav1.8) were examined. Nav1.1–Nav1.7 were transfected into HEK293 cells and Nav1.8 currents were expressed in ND cells. Inward sodium currents were elicited by a 50 ms depolarizing potential to −10 mV from a holding potential of −80 mV every 5 s. […] No effects on other sodium channel subtypes were found (Nav1.1, Nav1.2, Nav1.4–Nav1.6, and Nav1.8) (Figure S2).
Figure 2 Selectivity of JZTX-34 on sodium channel subtypes. […]
The HEK293T cells were maintained in standard culture conditions (5% CO2 and 37 °C). […] After culturing for 36–72 h, cells with obvious green fluorescence were selected for sodium currents recordings the internal solution for sodium currents recording that contained (in mM) 140 CsF, 5 NaCl, 10 HEPES, 3 Na2-ATP, and 10 EGTA. […]
Sodium currents were recorded from DRG, HEK293, and ND cells by the whole-cell patch-clamp technique at 25 °C. […] Experiments date were acquired from whole-cell Axon 700B patch clamp amplifier (Molecular Devices, Sunnyvale, CA, USA) and analyzed by the program Clampfit10.0 (Molecular Devices, Sunnyvale, CA, USA) and Sigmaplot. […]

CC(C)C[C@@H]1NC(=O)[C@H](Cc2c[nH]c3ccccc23)NC(=O)[C@H](CCC(=O)O)NC(=O)[C@H](CCCNC(=N)N)NC(=O)[C@@H](NC(=O)[C@H](C)N)CSSC[C@@H]2NC(=O)[C@@H]3CSSC[C@@H](C(=O)N[C@H](C(=O)N[C@@H](Cc4c[nH]c5ccccc45)C(=O)N[C@@H](CC(=O)O)C(=O)N[C@@H](Cc4c[nH]c5ccccc45)C(=O)N[C@H](C(=O)N[C@H](C(=O)O)C(C)C)[C@@H](C)O)C(C)C)NC(=O)[C@H](Cc4c[nH]cn4)NC(=O)[C@H](Cc4ccc(O)cc4)NC(=O)[C@@H]4CCCN4C(=O)[C@H](Cc4c[nH]c5ccccc45)NC(=O)[C@H](CCCCN)NC(=O)[C@H](CCCCN)NC(=O)[C@H](CCCNC(=N)N)NC(=O)[C@H](CSSC[C@H](NC(=O)CNC(=O)CNC1=O)C(=O)N[C@@H](CO)C(=O)N[C@@H](CCCCN)C(=O)N[C@@H](CC(=O)O)C(=O)N[C@@H](C)C(=O)N[C@@H](CC(=O)O)C(=O)N3)NC(=O)[C@H](CCC(=O)O)NC(=O)[C@H](CC(C)C)NC(=O)[C@H](Cc1c[nH]cn1)NC(=O)[C@H](C)NC2=O [JZTX-34, Jingzhaotoxin-34] (HELM PEPTIDE1{A.C.R.E.W.L.G.G.C.S.K.D.A.D.C.C.A.H.L.E.C.R.K.K.W.P.Y.H.C.V.W.D.W.T.V}$PEPTIDE1,PEPTIDE1,2:R3-16:R3|PEPTIDE1,PEPTIDE1,9:R3-21:R3|PEPTIDE1,PEPTIDE1,15:R3-29:R3$$$V2.0; N-terminus and C-terminus assumed)
hot plate latency (hot plate test in mice; 0.5 mg/kg i.p.): 18.3 s | hot plate latency (hot plate test in mice; 1 mg/kg i.p.): 23.0 s | hot plate latency (hot plate test in mice; 2 mg/kg i.p.): 31.6 s | time of maximal analgesia, hot plate (hot plate test in mice; 0.5, 1 or 2 mg/kg i.p.): 120 min | hot plate, analgesia vs morphine (hot plate test in mice; JZTX-34 2 mg/kg vs morphine 5 mg/kg): longer duration and is more effective than morphine; also recorded: longer and stronger analgesia effects than 5 mg/kg morphine | reduction of Nav1.3 currents (rNav1.3; 1 µM, mean ± S.E.): 29.4 ± 4.6% | IC50 (rNav1.3; Hill fit, n = 5): 7.95 µM
